Assay [1] has as its system female NOD mice. Kind of assay: Peptide treatment of 10-week old NOD mice, development of diabetes (Example 4, FIG. 4). The format is in vivo. The settings on record: single s.c. injection in IFA at 10 weeks, observed through 8 months of age, vs IFA alone. The procedure:
FIG. 4 is a graph showing the effect of peptide administration on diabetes. Groups of 10-20 NOD mice were treated at 10 weeks of age with 100 μg of mouse p12, p277, p35-GAD or MT-p278 in IFA, or IFA alone. The mice were bled monthly and followed for the onset of hyperglycemia.
(iv) Treatment and follow-up. Peptides, […], in PBS, were emulsified with an equal volume of IFA and injected subcutaneously into 10-week-old NOD females as described (Elias and Cohen, 1995). Control mice received an equal volume of PBS emulsified in IFA. The mice were monitored monthly for non-fasting blood glucose at 10am using the Blood Glucose Sensor (MediSense. Inc., Waltham, Mass.). Mice with a blood glucose greater than 11.1 mmol/L were considered to be diabetic; this concentration of glucose was greater than 3 standard deviations above the mean blood glucose concentration measured in non-diabetic mice (Elias and Cohen, 1995). Histological examination of the islets of the pancreas was done on sections stained with hematoxylin and eosin. The sections were scored independently by two observers who both were unaware of the identity of the groups. The chi square test was used to ascertain the statistical differences between the various treatments.
Following a protocol shown to be effective with mouse p277(Elias et al., 1991; Elias and Cohen, 1994; Elias and Cohen, 1995), groups of 10-week old female NOD mice were treatedby a single subcutaneous injection of each peptide ([…]) emulsified in IFA.

The subject of assay [2] is NOD mice. The note with it: s.c. in IFA; young NOD mice or 12-17 week old NOD mice with advanced insulitis; cited from earlier work.
The subject of assay [3] is C57BL/KsJ mice. The settings on record: mice that had received earlier a very low dose of STZ; cited from earlier work.
The subject of assay [4] is draining lymph nodes. Put plainly: T-cell proliferative responses of NOD mice to peptides (Example 4, FIG. 3). The note with it: NOD mice immunized with 25 μg peptide in IFA, lymph nodes 10 days later, 20 μg/ml. The format is cell-based. The procedure: FIG. 3 is a graph showing T-cell proliferative responses of NOD mice to peptides. Groups of three NOD mice were […] with peptides mouse p12, mouse p277, GAD-p35 and MT-p278 in IFA each at a dose of 25 μg in IFA. The draining lymph nodes were removed 10 days later and assayed for proliferative responses to the corresponding peptide at the concentrations of 5, 10, 20, and 50 μg/ml. The stimulation at the optimal concentration of 20 μg/ml is shown. The following ranges of cpm were obtained in medium controls: mouse p12, 881; mouse p277, 1243; MT-p278, 698 and GAD-p35 1430. Peptide mouse p38 is a peptide derived from mouse hsp60 (556-573), which has no sequence homology with the tested peptides and serves as a negative control of specificity. […] Each assay was done in triplicates for which the SD values are indicated by the bars. There was no cross-reactivity between the peptides (not shown).
(iii) T-Cell proliferation to peptides. Mice. Nine week old NOD mice or mice of other strains were immunized in the hind foot pads with 0.1 ml of an emulsion containing 25 μg peptide in complete Freund's adjuvant (CFA; Difco, Detroit, Mich.) mixed with an equal volume of phosphate-buffered saline (PBS). The draining popliteal lymph nodes were removed 10 days later and suspensions of lymphocytes in triplicate cultures were tested for proliferation in the presence of the various peptides (5 μg/ml) using the incorporation of [^3H]-thymidine as described (Elias et al., 1991). The results are shown as the stimulation index (SI): the ratio of the mean cpm in the presence of the test peptide to the mean cpm of control cultures without the peptide. Standard errors were always less than 10% of the means.
Spontaneous T cell responses in pre-diabetic NOD mice were detected to the mouse p277 peptide (Elias et al., 1991; Birk et al., 1996) and to larger fragments of the mouse hsp60 molecule that contained the mouse p277 sequence (Birk et al., 1996). […] Other peptides immunogenic for NOD mice are the MT-p278 peptide (residues 458-474 in the Mycobacterial hsp60 molecule), and GAD-p35 (residues 524-543 in the GAD65 molecule).

Assay [5] has as its system spleens of female NOD mice. Kind of assay: Spontaneous T-cell responses in spleens of female NOD mice (longitudinal study). The format is cell-based. The settings on record: female NOD mice at ages 3-16 weeks.
Assay [6] concerns serum antibodies of the IgG1, IgG2a and IgG2b isotypes. Put plainly: Serum anti-peptide antibody isotypes by ELISA in peptide-treated NOD mice (FIG. 5). The settings on record: for antibody titers of the IgG1 and IgG2b isotypes: peptide-treated NOD mice, sera diluted 1:50, ELISA. The format is in vivo. As to the method:
FIGS. 5A-5D show the IgG1, IgG2a and IgG2b antibody isotypes in response to peptide treatment. Mice were treated as described in the legend to FIG. 4. Individual samples were analyzed for antibodies to mouse p12 A; p277 B; GAD-p35 C; and MT-p278 D, of the IgG1, IgG2a and IgG2b isotypes. Similar effects were obtained in two experiments. The results are presented as the absorbance at 405 nm (OD) of 10 individual mice in each group. The level of significance of the prevalence of IgG1 and IgG2b antibodies in groups A and B compared to C and D is P<0.001. The differences between the levels of IgG1 and IgG2b antibodies compared to the IgG2a antibodies in groups A and B were significant (P<0.001). There was no cross-reactivity between the antibodies (not shown).
(v) Serum Antibodies. Mice were bled monthly to detect antibody responses. The ELISA assay was done as described (Elias et al., 1991). Briefly, flat bottom Maxi-sorb plates (Nunc, Roskilde, Denmark) were coated, for the detection of anti-peptide antibodies, with […] of peptide in PBS, at a concentration of […] for 2 h at room temperature followed by over night incubation at 4° C. After incubation with peptide, the plates were washed and blocked for 2 h at 37° C. with 7% BSA (Sigma) in PBS. Sera were diluted 1:50 then added for 2 h at 37° C., followed by incubation for 2 h with […] of goat anti-mouse IgG (gamma chain Fc specific) conjugated to alkaline phosphatase (Jackson, Philadelphia, Pa.). After washing, the plates were incubated with the substrate, diethanolamine (Sigma) and read using an ELISA reader at 405 nm.
Successful treatment of STZ-induced diabetes with mouse peptide p277 was associated with the appearance of anti-peptide antibodies predominantly of the IgG1 and IgG2b isotypes (Elias and Cohen, 1996). The peptide-treated NOD mice for their serum antibodies was therefore examined. […] Thus, effectiveness in inhibiting diabetes was associated with the induction of an antibody response mainly of the IgG1 and IgG2b isotypes.

In assay [7] the test system is peripheral blood T-cells. Kind of assay: Peripheral blood T-cell proliferation of IDDM patients and healthy controls to hsp60 and hsp60 synthetic peptides (Example 5). It is filed as cell-based, human. The settings on record: 26 newly diagnosed IDDM patients; peptides 20 μg/ml, 7 days.

Entries after “also recorded” stand apart in the source; their conditions may differ. Where no end group is shown, it is not given here.

Regarding “VLGGGCALLRCIPALDSLTPANED (cysteine pairing not given here) [p277, human hsp60 residues 437-460]”, the development of diabetes result in assay [1] is recorded as “significantly protected”. In addition, in assay [2], the disease progression entry is “arrest of disease progression”. In addition, in assay [3], the “development of autoimmune diabetes” value was “aborted the development of autoimmune diabetes”.

EEIAQVATISANGDKDIGNI [mouse p12]: the “immunogenicity (T-cell proliferative response)” value (“immunogenicity” for short) in assay [4] is listed as “strong response”. In addition, in assay [5], the “spontaneous T-cell responses” value was “no spontaneous responses”. In assay [1], the development of diabetes entry is listed as “significantly protected; also recorded: effective in inhibiting the development of diabetes”. In assay [6], the “antibody titers of the IgG1 and IgG2b isotypes” value (shortened to “antibody titers”) is “effective in inducing strong antibody titers”.

Regarding “LVIIAEDVDGEALSTLVLNR [p19, human hsp60 residues 271-290]”, the “T-cell proliferative response of IDDM patients (S.I. 2 or greater positive)” value in assay [7] was “no IDDM patients responded”.

Turning to EGDEATGANIVKVALEA [MT-p278], the “immunogenicity” value in assay [4] is “as strongly immunogenic as are mouse p277 and mouse p12”. In addition, the “spontaneous T-cell responses” value in assay [5] is on record as “spontaneous responses were detected”. In addition, the development of diabetes result in assay [1] is listed as “no different than was treatment with IFA alone”. Also, in assay [6] (10 individual mice per group, ELISA), the “mice that made specific IgG1 antibodies” value is “only two of the ten”. In assay [6] (compared with mouse p12 and mouse p277 groups), the “titers of IgG2b antibodies” value was “significantly lower titers”. Further, in assay [6], the “antibody titers” value was “did not respond as strongly”.

With “mouse p277: mouse variant of p277, mouse hsp60 437-460; differs from human by 1 amino acid (VLGGGCALLRCIPALDSLKPANED; UniProt P63038 437-460, looked up, fragment)”, in assay [4], the “immunogenicity” value was “strong response”. For the same substance, in assay [5], the “spontaneous T-cell responses” value was “spontaneous responses were detected”. For the same substance, the development of diabetes entry in assay [1] was “effective in inhibiting the development of diabetes”. In assay [6], the “antibody titers” value is recorded as “effective in inducing strong antibody titers”.

In the case of “KAPGFGDNRKNQLKDMAIAT [p21, human hsp60 residues 301-320]”, the “T-cell proliferative response of IDDM patients (S.I. 2 or greater positive)” value in assay [7] is “no IDDM patients responded”.

The values are drawn from patent US6682897B1, “Peptides derived from human heat protein 60 for treatment of diabetes, compositions, methods and kits” (Yeda Research and Development Co. Ltd., priority 1995, dated 2004).
